The text below walks through data of ChEMBL document CHEMBL1201862, “PubChem BioAssay data set” (2004).

Molecules are shown by their SMILES.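 How tested: cells in 96-well plates exposed to compound for 48 hours at five concentrations. At the GI50, growth is halved.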 Active and inactive are the calls of the source. No stated cut-off is given here; in the data, active = GI50 up to about 1.1 µM and inactive = higher.

Among the test systems are SF-539; OVCAR-4; SK-MEL-2; IGROV-1; SF-295; CAKI-1; MOLT-4; UACC-62; UACC-257; Hs-578T; UO-31; HT-29; RPMI-8226; OVCAR-3; SW-620; SK-OV-3; HCT-116; DU-145; NCI-H23.
Common to all, as to experiment: NCI tumour cell line growth inhibition, 48 h

For the molecule `CC(=O)Nc1cc([As](=O)(O)O)ccc1O` [ACETARSONE], the GI50 with SF-539, in the assay with OVCAR-4, in the assay on SK-MEL-2, with IGROV-1, with SF-295 and in the assay with CAKI-1 was > 100 µM (inactive) each time. In addition, the GI50 in the assay with MOLT-4, in the assay on UACC-62, in the assay with UACC-257, in the assay with Hs-578T, with UO-31 and in the assay with HT-29 was > 100 µM (inactive) throughout. The GI50 in the assay on RPMI-8226, in the assay with OVCAR-3, with SW-620, in the assay on SK-OV-3, with HCT-116 and in the assay on DU-145 was > 100 µM (inactive) each time. Further, the GI50 in the assay with NCI-H23 was > 100 µM (inactive).

As to `CC(C)N1CC2CN(Cc3ccccc3)CC(C1)C2=O`, the GI50 with SF-539, with OVCAR-4, in the assay with SK-MEL-2, in the assay on IGROV-1, in the assay with SF-295 and in the assay with CAKI-1 was > 100 µM (inactive) each time. The GI50 with MOLT-4, with UACC-62, with UACC-257, in the assay with Hs-578T, in the assay with UO-31 and with HT-29 was > 100 µM (inactive) in each case. The GI50 in the assay on RPMI-8226, with OVCAR-3, with SW-620, in the assay with SK-OV-3, with HCT-116 and with DU-145 was > 100 µM (inactive) in each case. Further, the GI50 in the assay on NCI-H23 was > 100 µM (inactive).

Consider `O=C1C=CC(=O)c2c1ccc1c3ccccc3n(-c3ccccc3[N+](=O)[O-])c21`, for which the GI50 in the assay with SF-539 is 22.5 µM (inactive); in the assay on OVCAR-4 it was 2.59 µM (inactive); with SK-MEL-2, 13.3 µM (inactive); with IGROV-1, 1.94 µM (inactive); in the assay on SF-295, 22.6 µM (inactive); with CAKI-1, 1.47 µM (inactive). Moreover, the GI50 with MOLT-4 is 0.543 µM (active); with UACC-62 it was 4.91 µM (inactive); in the assay on UACC-257, 3.56 µM (inactive); with Hs-578T, 10.7 µM (inactive); with UO-31, 1.44 µM (inactive); with HT-29 it was 5.2 µM (inactive). Also, the GI50 in the assay with RPMI-8226 was 0.71 µM (active); in the assay with OVCAR-3, 2.44 µM (inactive); in the assay on SW-620, 1.98 µM (inactive); with SK-OV-3 it was 17 µM (inactive); in the assay with HCT-116, 2.79 µM (inactive); in the assay with DU-145 it was 4.68 µM (inactive). In addition, the GI50 in the assay with NCI-H23 is 4.55 µM (inactive).

Take `CC(C)(C)OC(=O)N(CCCCN(CCCNC(=O)C(F)(F)F)C(=O)OC(C)(C)C)CCCNC(=O)C(F)(F)F`: the GI50 with SF-539 is > 100 µM (inactive); in the assay on OVCAR-4 it was > 100 µM (inactive); with SK-MEL-2 it was > 100 µM (inactive); with IGROV-1 it was > 100 µM (inactive); with SF-295 it was > 100 µM (inactive); in the assay with CAKI-1 it was 47.1 µM (inactive). For the same molecule, the GI50 is 71.9 µM (inactive) with MOLT-4; > 100 µM (inactive) in the assay with UACC-62; > 100 µM (inactive) with UACC-257; > 100 µM (inactive) in the assay on Hs-578T; > 100 µM (inactive) with UO-31; > 100 µM (inactive) in the assay with HT-29. The GI50 in the assay with RPMI-8226 is 37.7 µM (inactive); with OVCAR-3, 45.3 µM (inactive); in the assay with SW-620, > 100 µM (inactive); in the assay with SK-OV-3, > 100 µM (inactive); with HCT-116, > 100 µM (inactive); with DU-145, > 100 µM (inactive). The GI50 in the assay on NCI-H23 is > 100 µM (inactive).

In the case of `CCCCc1ccc(Nc2nc(Cl)c3c(ncn3C3CC(Oc4ccc(C)cc4)C(COc4ccc(C)cc4)O3)n2)cc1` (stereo not given), the GI50 with SF-539 is 61 µM (inactive); in the assay with OVCAR-4, > 100 µM (inactive); in the assay with SK-MEL-2, > 100 µM (inactive); with IGROV-1, > 100 µM (inactive); in the assay with SF-295, > 100 µM (inactive); with CAKI-1 it was > 100 µM (inactive). Moreover, the GI50 was 33.9 µM (inactive) in the assay on MOLT-4; > 100 µM (inactive) in the assay on UACC-62; > 100 µM (inactive) with UACC-257; 42.5 µM (inactive) with Hs-578T; > 100 µM (inactive) with UO-31; > 100 µM (inactive) in the assay with HT-29. Further, the GI50 in the assay with RPMI-8226, in the assay on OVCAR-3, in the assay with SW-620, with SK-OV-3, in the assay on HCT-116 and in the assay on DU-145 was > 100 µM (inactive) in each case. For the same molecule, the GI50 in the assay with NCI-H23 was > 100 µM (inactive).

For the molecule `O=C(OC(/C=C/c1ccccc1)P1(=O)N(Cc2ccccc2)[C@@H]2CCCC[C@H]2N1Cc1ccccc1)c1ccccc1` (stereo not given in full), the GI50 with SF-539 is 3.17 µM (inactive); with OVCAR-4, 4.22 µM (inactive); in the assay on SK-MEL-2, 2.25 µM (inactive); in the assay with IGROV-1, 2.9 µM (inactive); in the assay on SF-295, 4.09 µM (inactive); in the assay on CAKI-1, 3.56 µM (inactive). Also, the GI50 with MOLT-4 was 2.15 µM (inactive); in the assay on UACC-62, 5.3 µM (inactive); with UACC-257, 3.07 µM (inactive); with Hs-578T, 6.67 µM (inactive); in the assay with UO-31, 3.34 µM (inactive); with HT-29, 3.4 µM (inactive). Further, the GI50 in the assay on RPMI-8226 was 2.21 µM (inactive); with OVCAR-3 it was 3.93 µM (inactive); with SW-620 it was 4.57 µM (inactive); with SK-OV-3 it was 5.06 µM (inactive); in the assay with HCT-116, 2.87 µM (inactive); in the assay with DU-145, 6.75 µM (inactive). The GI50 in the assay on NCI-H23 was 3.09 µM (inactive).

On to `CN(O)C(=O)Cc1ccc(OCc2cccc(Cl)c2)cc1`, for which the GI50 in the assay on SF-539, in the assay with OVCAR-4, with SK-MEL-2, in the assay with IGROV-1, in the assay with SF-295 and with CAKI-1 was > 100 µM (inactive) throughout. Further, the GI50 in the assay on MOLT-4, in the assay with UACC-62, in the assay with UACC-257, with Hs-578T, in the assay with UO-31 and with HT-29 was > 100 µM (inactive) in each case. Also, the GI50 in the assay with RPMI-8226, in the assay on OVCAR-3, with SW-620, in the assay with SK-OV-3, in the assay on HCT-116 and with DU-145 was > 100 µM (inactive) throughout. Further, in the assay on NCI-H23, the GI50 was > 100 µM (inactive).

Turning to `CCCCC1Cc2cc(O)ccc2-c2n1c1cc(O)ccc1[n+]2C.CCCCC1Cc2cc(O)ccc2-c2n1c1ccc(O)cc1[n+]2C` (stereo not given), the GI50 was 40.3 µM (inactive) with SF-539; 27.7 µM (inactive) in the assay on OVCAR-4; 32.7 µM (inactive) in the assay with SK-MEL-2; 25.9 µM (inactive) in the assay on IGROV-1; 4.82 µM (inactive) in the assay on SF-295; > 100 µM (inactive) in the assay with CAKI-1. In addition, the GI50 in the assay on MOLT-4 was 49.1 µM (inactive); in the assay on UACC-62, 24.4 µM (inactive); in the assay with UACC-257 it was 11.6 µM (inactive); with Hs-578T, 5.47 µM (inactive); in the assay on UO-31, 65.6 µM (inactive); with HT-29 it was 41.7 µM (inactive). The GI50 is 9.73 µM (inactive) with RPMI-8226; 10.7 µM (inactive) with OVCAR-3; 32.2 µM (inactive) in the assay on SW-620; 57.3 µM (inactive) in the assay on SK-OV-3; 36.9 µM (inactive) with HCT-116; 78.7 µM (inactive) in the assay on DU-145. Besides, the GI50 in the assay on NCI-H23 is 2.59 µM (inactive).

On to `CCN(CC)CCn1c2ccccc2c(=O)c2c(O)ccc(O)c21`, for which the GI50 with SF-539 was 33.8 µM (inactive); with OVCAR-4, 17.3 µM (inactive); in the assay with SK-MEL-2, 33.4 µM (inactive); with IGROV-1, 38.5 µM (inactive); in the assay on SF-295 it was 22.5 µM (inactive); in the assay with CAKI-1, 35.5 µM (inactive). The GI50 in the assay on MOLT-4 is 18.5 µM (inactive); in the assay on UACC-62, 3.48 µM (inactive); in the assay with UACC-257, 36.9 µM (inactive); in the assay on Hs-578T, 22.1 µM (inactive); with UO-31, 47.4 µM (inactive); with HT-29, 35.9 µM (inactive). Besides, the GI50 in the assay with RPMI-8226 is 19.9 µM (inactive); in the assay with OVCAR-3, 31.5 µM (inactive); in the assay on SW-620, 13.8 µM (inactive); in the assay on SK-OV-3, 69.8 µM (inactive); in the assay with HCT-116, 31.1 µM (inactive); with DU-145, > 59.4 µM (inactive). The GI50 in the assay with NCI-H23 was 45.6 µM (inactive).

Take `O=C(Nc1cnc(O)nc1O)Oc1ccccc1`: the GI50 in the assay with SF-539, with OVCAR-4, in the assay with SK-MEL-2, with IGROV-1, in the assay with SF-295 and in the assay on CAKI-1 was > 100 µM (inactive) throughout. Moreover, the GI50 in the assay with MOLT-4, in the assay with UACC-62, with UACC-257, with Hs-578T, with UO-31 and in the assay with HT-29 was > 100 µM (inactive) throughout. Further, the GI50 in the assay with RPMI-8226, in the assay on OVCAR-3, with SW-620, in the assay on SK-OV-3, in the assay on HCT-116 and with DU-145 was > 100 µM (inactive) each time. Besides, in the assay on NCI-H23, the GI50 is > 100 µM (inactive).
